Reference: PubChem BioAssay (NCI)
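Dose response: 5 concentrations. Exposure: 48 h. Format: 96-well plates. Endpoint: linear interpolation; highest concentration if not reached. TGI: total growth inhibition.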

Tests used:
Test in all cases: NCI tumour cell line growth inhibition, 48 h
MDA-MB-435 = tested on: MDA-MB-435
A549 NSCLC = tested on: A549 NSCLC
HS 578T breast = tested on: HS 578T breast
HCT-116 colon = tested on: HCT-116 colon
HL-60(TB) leukemia = tested on: HL-60(TB) leukemia
U251 CNS = tested on: U251 CNS
SF-295 CNS = tested on: SF-295 CNS
SF-539 CNS = tested on: SF-539 CNS
NCI-H23 lung = tested on: NCI-H23 lung
DU-145 prostate = tested on: DU-145 prostate
LOX IMVI melanoma = tested on: LOX IMVI melanoma
MALME-3M melanoma = tested on: MALME-3M melanoma
MDA-MB-231 breast = tested on: MDA-MB-231 breast
SF-268 CNS = tested on: SF-268 CNS
IGROV1 ovarian = tested on: IGROV1 ovarian
KM12 colon = tested on: KM12 colon
PC-3 prostate = tested on: PC-3 prostate
UO-31 renal = tested on: UO-31 renal
MCF7 breast = tested on: MCF7 breast
TK-10 renal = tested on: TK-10 renal

Row | SMILES | TGI (MDA-MB-435) | TGI (A549 NSCLC) | TGI (HS 578T breast) | TGI (HCT-116 colon) | TGI (HL-60(TB) leukemia) | TGI (U251 CNS) | TGI (SF-295 CNS) | TGI (SF-539 CNS) | TGI (NCI-H23 lung) | TGI (DU-145 prostate) | TGI (LOX IMVI melanoma) | TGI (MALME-3M melanoma) | TGI (MDA-MB-231 breast) | TGI (SF-268 CNS) | TGI (IGROV1 ovarian) | TGI (KM12 colon) | TGI (PC-3 prostate) | TGI (UO-31 renal) | TGI (MCF7 breast) | TGI (TK-10 renal)
1 | Cc1cc(=O)oc2c(CNC(CO)C(=O)O)c(O)ccc12 (centres undefined) | > 100 µM | > 100 µM | > 100 µM | > 100 µM | > 100 µM | > 100 µM | > 100 µM | > 100 µM | > 100 µM | > 100 µM | > 100 µM | > 100 µM | > 100 µM | > 100 µM | > 100 µM | > 100 µM | > 100 µM | > 100 µM | > 100 µM | > 100 µM
2 | Cc1c(/C=N/NC(=S)Nc2ccc(Cl)cc2)c(=O)n(-c2ccccc2)n1C | > 100 µM | > 95.9 µM | 50.8 µM | > 62.5 µM | > 100 µM | 30.7 µM | 44.5 µM | 28.2 µM | 54.5 µM | > 100 µM | > 100 µM | > 60.3 µM | 1.99 µM | 39 µM | 45.2 µM | 99.4 µM | > 100 µM | > 100 µM | > 54.9 µM | > 58.3 µM
3 | CN(C)Cc1cc(C(=O)/C=C/c2ccc(Cl)c(Cl)c2)cc(CN(C)C)c1O | 13.2 µM | 8.47 µM | 8.74 µM | 12.1 µM | > 100 µM | 13.6 µM | 12.1 µM | 8.93 µM | 19.9 µM | 15.9 µM | 2 µM | 10.4 µM | 14.3 µM | 13.2 µM | 12.4 µM | 4.73 µM | 5.32 µM | 5.39 µM | 12.3 µM | –
4 | N/N=C(\c1nc2ccc([N+](=O)[O-])cc2[nH]c1=O)C(O)c1ccc(Cl)c(Cl)c1 (centres undefined) | > 100 µM | > 100 µM | > 100 µM | > 100 µM | > 100 µM | > 100 µM | > 100 µM | > 100 µM | > 100 µM | > 100 µM | > 100 µM | > 100 µM | > 100 µM | > 100 µM | > 100 µM | > 100 µM | > 100 µM | > 100 µM | > 100 µM | > 100 µM
5 | CCOC(=O)C1(C#N)C(=O)c2cc[n+](CC[n+]3ccc4c(c3)C(=O)C(C#N)(C(=O)OCC)C4=O)cc2C1=O (centres undefined) | > 100 µM | > 100 µM | > 100 µM | > 100 µM | > 100 µM | > 100 µM | > 100 µM | > 100 µM | > 100 µM | > 100 µM | > 100 µM | > 100 µM | > 100 µM | > 100 µM | > 100 µM | > 100 µM | > 100 µM | > 100 µM | > 100 µM | –
6 | COc1cc(C2OC(N)=C(C#N)C3=C2C(C)CCC3)cc(OC)c1OC (centres undefined) | > 100 µM | – | > 100 µM | > 100 µM | > 100 µM | > 100 µM | > 100 µM | > 100 µM | > 100 µM | > 100 µM | > 100 µM | > 100 µM | > 100 µM | > 100 µM | > 100 µM | > 100 µM | > 100 µM | > 100 µM | > 100 µM | > 100 µM
7 | O=C(O)C1(Cc2ccccc2)Cc2cc3c(cc2C1)CCC3 | > 100 µM | > 100 µM | > 100 µM | > 100 µM | > 100 µM | > 100 µM | > 100 µM | > 100 µM | > 100 µM | > 100 µM | > 100 µM | > 100 µM | > 100 µM | > 100 µM | > 100 µM | > 100 µM | > 100 µM | > 100 µM | > 100 µM | > 100 µM
8 | CCC/C(Cl)=N/OC(=O)Nc1cc(C(F)(F)F)ccc1OC | 26.3 µM | 34.6 µM | > 72.2 µM | 22.8 µM | > 100 µM | 31.6 µM | 32.3 µM | 28.6 µM | 37.2 µM | 30 µM | 16.2 µM | 7.34 µM | 27 µM | 29.8 µM | 30.7 µM | 33.5 µM | 29.7 µM | 29.9 µM | 27.7 µM | 32.5 µM
9 | COC(=O)c1ccccc1CC1Cc2cc3c(cc2C1=O)CCC3 (centres undefined) | 10.7 µM | 72.8 µM | 86.6 µM | 29.9 µM | 27.6 µM | 42.3 µM | 77.4 µM | 43.1 µM | 75.1 µM | > 100 µM | 31.1 µM | 69.2 µM | 80.2 µM | > 100 µM | > 100 µM | > 100 µM | > 100 µM | 86.3 µM | 65.3 µM | 79.7 µM
10 | CC(=O)OCC1OC(c2c(OC(C)=O)cc(C)c3c(=O)cc(/C(C(C)=O)=C(\C)O)oc23)C(OC(C)=O)C(OC(C)=O)C1OC(C)=O (centres undefined) | > 100 µM | > 100 µM | > 100 µM | > 100 µM | > 100 µM | > 100 µM | > 100 µM | > 100 µM | > 100 µM | > 100 µM | – | > 100 µM | > 100 µM | > 100 µM | > 100 µM | > 100 µM | > 100 µM | > 100 µM | > 100 µM | > 100 µM
11 | O=c1cc(NNCc2ccccc2)[nH]c(=O)[nH]1 | > 100 µM | > 100 µM | > 100 µM | – | > 100 µM | > 100 µM | > 100 µM | > 100 µM | > 100 µM | > 100 µM | > 100 µM | > 100 µM | > 100 µM | > 100 µM | > 100 µM | > 100 µM | > 100 µM | > 100 µM | > 100 µM | > 100 µM
12 | O/N=C(/CC(O)(C(F)(F)F)C(F)(F)F)c1ccccc1 | > 10 µM | > 10 µM | > 10 µM | > 10 µM | > 10 µM | > 10 µM | > 10 µM | > 10 µM | > 10 µM | > 10 µM | > 10 µM | > 10 µM | > 10 µM | > 10 µM | > 10 µM | > 10 µM | > 10 µM | – | > 10 µM | > 10 µM
